Here are results for eight molecules from US6022901A, “Administration of resveratrol to prevent or treat restenosis following coronary intervention” (priority 1998, dated 2000).

One test deals with low-density lipoproteins.
Assay: not given
To be noted: cited from earlier work.
For `Oc1ccc(/C=C\c2cc(O)cc(O)c2)cc1` [cis-resveratrol], the “protection of low-density lipoproteins against oxidation” value (from here on “protection of low-density lipoproteins”) is reported as “protect low-density lipoproteins against oxidation”.

Turning to `Oc1cc(O)c2c(c1)OC(c1ccc(O)c(O)c1)C(O)C2` (stereo not drawn) [catechin, reference compound], the “protection of low-density lipoproteins” value is “protect low-density lipoproteins against oxidation”.

As to `O=c1c(O)c(-c2ccc(O)c(O)c2)oc2cc(O)cc(O)c12` [quercetin, reference compound], the “protection of low-density lipoproteins” value was “protect low-density lipoproteins against oxidation”.

As for `OC[C@H]1O[C@@H](Oc2cc(O)cc(/C=C\c3ccc(O)cc3)c2)[C@H](O)[C@@H](O)[C@@H]1O` [cis-resveratrol glucoside], the “protection of low-density lipoproteins” value is recorded as “protect low-density lipoproteins against oxidation”.

With `Oc1ccc(/C=C/c2cc(O)cc(O)c2)cc1` [trans-resveratrol], the “protection of low-density lipoproteins” value is on record as “protect low-density lipoproteins against oxidation”.

Regarding `C[C@@H]1O[C@@H](OC[C@H]2O[C@@H](Oc3c(-c4ccc(O)c(O)c4)oc4cc(O)cc(O)c4c3=O)[C@H](O)[C@@H](O)[C@@H]2O)[C@H](O)[C@H](O)[C@H]1O` [rutin, reference compound], the “protection of low-density lipoproteins” value is recorded as “protect low-density lipoproteins against oxidation”.

Take `Oc1cc(O)c2c(c1)O[C@H](c1ccc(O)c(O)c1)[C@H](O)C2` [epicatechin, reference compound]: the “protection of low-density lipoproteins” value is listed as “protect low-density lipoproteins against oxidation”.

In the case of `OC[C@H]1O[C@@H](Oc2cc(O)cc(/C=C/c3ccc(O)cc3)c2)[C@H](O)[C@@H](O)[C@@H]1O` [trans-resveratrol glucoside], the “protection of low-density lipoproteins” value is reported as “protect low-density lipoproteins against oxidation”.

Another test deals with common iliac artery of high cholesteric rabbits. The test is described as follows: Restenosis/thrombus model: balloon injury of common iliac artery in high cholesteric rabbits, local administration, angioscopy. The format is in vivo, rabbit. The following applies: after one month; trans-resveratrol + heparin (1:100) compared with heparin only, P<0.05. The procedure: The procedure of U.S. Pat. No. 5,595,974 to Tomaru may be used to evaluate the utility of trans-resveratrol in preventing restenosis in high cholestereric rabbits, as follows:
An injectable trans-resveratrol solution is prepared containing the following components: 10 mg trans-resveratrol; 3 mg chlorobutanol (preservative); 0.1 mg gelatin hydrolyzate (stabilizer); 9 mg sodium chloride (isotonic agent); and distilled water containing 2% dimethyl sulfoxide ("DMSO") for injection (to 1 mL).
Common iliac arteries of high cholesteric rabbits to which a diet containing 2% of cholesterol is loaded for a month are used as a model for restenosis, wherein the model consists of (1) a heparin group with seven male rabbits and (2) trans-resveratrol solution combined with th seven male rabbits, weighing between 2.5 kg and 3 kg, respectively. […]
Post-operatively, the percent luminal obstruction (%) of both the control side and the drug administered side are compared by continuing the load of high cholesterol for one month. That is, effects for preventing stenosis by local administration of trans-resveratrol is evaluated by angioscopic visualization after one month from vascular injury to compare the percent luminal obstruction (%) caused by intima pachymenia.
The percent luminal obstruction (%) is calculated by the following equation: […]
For the molecule `Oc1ccc(/C=C/c2cc(O)cc(O)c2)cc1` [trans-resveratrol], the “percent luminal obstruction (%)” value is listed as “remarkably reduced percent luminal obstruction (%)”.
